Measured values from the METLIN SMRT retention time set (Domingo-Almenara et al. 2019).

Assay: gradient 5% acetonitrile 3 min, to 50% in 2 min, to 85% in 15 min, held 3 min, 100 µL/min
Conditions: column: Zorbax Extend-C18 2.1 x 50 mm; eluents: water / acetonitrile, 0.1% formic acid
Procedure, shortened: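 Pure standards were analyzed in mixtures of ~100 molecules using HPLC coupled to a quadrupole time-of-flight mass spectrometer, in both positive and negative ionization mode. Separation used a Zorbax Extend-C18 column (2.1 × 50 mm, 1.8 μm) at 100 μL/min, with water and acetonitrile each containing 0.1% formic acid. Dead and dwell volumes were 40 μL and 900 μL, and data were collected over 3 months. Retention time was read from computationally picked adduct peaks, each inspected manually.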

RP-LC retention time | SMILES
712 s | COc1ccc(-n2nc3c(N4CCCC(C(=O)NCCc5ccco5)C4)nnc(C)c3c2C)cc1 (configuration not stated)
795 s | O=c1c2cc3c(cc2nc(SCc2nc(-c4cccc(F)c4)no2)n1Cc1ccncc1)OCO3
596 s | CCNC(=O)c1cc(C)on1
630 s | O=C(Nc1ccc(N2CCN(C3CCCCC3)C2=O)nc1)c1ccccc1
770 s | O=C(O)c1cnc(N2CCOCC2)nc1-c1cccc(Cl)c1
1060 s | Cc1nc2cc(-c3noc(Cc4ccccc4C)n3)ccc2o1
826 s | c1ccc(Nc2c(-c3ccccc3)nc3cnccn23)cc1
646 s | O=C(NCCNc1cc(-n2cccn2)ncn1)c1c[nH]c2ccccc12
993 s | CCS(=O)(=O)N1CC(=O)N(c2ccc(Cl)cc2)C(C)(C(=O)NC2CCCCCCC2)C1 (configuration not stated)
850 s | COc1ccccc1-n1ccn(Cc2nc(-c3ccccc3C)no2)c(=O)c1=O
720 s | O=C(Nc1ccc(OCc2nnc(-c3ccc(F)cc3)o2)cc1)c1cccnc1
871 s | CCc1cc2nn(CC#N)c(=O)n2c(C(C)C)n1
893 s | Cc1ccc(NC(=O)C2CCCN(C(=O)C3Sc4ccccc4NC3=O)C2)cc1Cl (configuration not stated)
761 s | Cc1ccc(N2CCC(NC(=O)NC(C)(C)C)C2=O)cc1 (configuration not stated)
532 s | CCn1cc(CN2CCC(N3C(=O)C4(CCCCC4)C3c3ccncc3)CC2)c(C)n1 (configuration not stated)
732 s | CSc1ccc(CNC(=O)c2ccc3ccnc(N4CCN(C(=O)c5ccco5)CC4)c3c2)cc1
1090 s | COc1ccc(-c2noc(Cc3nnc(-c4ccc(C)c(C)c4)o3)n2)cc1
1210 s | CCOc1ccc(C2c3[nH]c4ccccc4c3CCN2C(=O)C2CCC2)cc1 (configuration not stated)
821 s | O=C(Nc1nccs1)c1cc2cc([N+](=O)[O-])ccc2s1
637 s | CC(C)c1cc(C(=O)N2CCOCC2)nc2ccnn12
610 s | Cc1ccc(NC(=O)N2CCCC2c2nc(-c3ccccc3C)no2)c(Cl)c1 (configuration not stated)
1250 s | Cc1ccc(CNc2ccc(-c3nc(-c4ccc(F)cc4)no3)cn2)cc1

RP-LC retention time | SMILES
639 s | O=C(Nc1cccc(F)c1)C1(CCO)CCN(c2ncccn2)C1 (configuration not stated)
826 s | Cc1ccc(S(=O)(=O)N2C[C@@H](F)C[C@H]2C(=O)N2CCCCC2)cc1Cl
639 s | CCN1C(=O)c2ccccc2Oc2ccc(C(=O)NCCC3=CCCCC3)cc21
956 s | CCS(=O)(=O)N1CC(=O)N(c2cccc(F)c2)C(C)(C(=O)NC2CCCCCCC2)C1 (configuration not stated)
880 s | COCCn1nnnc1C1CC2(CCOCC2)C(=O)N1CCc1ccc(Cl)cc1 (configuration not stated)
910 s | Cc1csc(-c2ccc(N3CCN(C(=O)c4cc(F)ccc4Cl)CC3)nc2)n1
1050 s | Cc1ccc(-c2noc(Cn3ccn4nc(-c5ccc6c(c5)OCO6)cc4c3=O)n2)cc1
987 s | Cc1ccc(-n2c(N3CCCC(C(=O)NCCCc4ccccc4)C3)nc3ccsc3c2=O)cc1 (configuration not stated)
566 s | CCNC(=O)N1CCCN(S(C)(=O)=O)CC1
834 s | CCOc1ccc2nc(NC(=O)CCN3C(=O)C4C5C=CC(C5)C4C3=O)sc2c1 (configuration not stated)
786 s | Cc1cc(C(=O)N2CCCCC2)c2c(=O)n(CC(=O)NC3CCCCC3)c(=O)n(C)c2n1
934 s | CC(C)c1ccc(NC(=O)Cn2ncc3c(c2=O)N(CC2CC2)C(=O)CS3)cc1
767 s | CC[C@H](C)NC(=O)Cc1nnc(-c2cccc(C)c2)o1
1220 s | CC(C)Cn1cc(S(=O)(=O)N2CCN(c3ccccc3Cl)CC2)c2cccnc21
1210 s | O=C(Nc1cccc(F)c1)C1CCCN(c2nc3ccccc3nc2C(F)(F)F)C1 (configuration not stated)
516 s | Cc1ncoc1C(=O)N[C@@H]1CN(S(C)(=O)=O)C[C@H]1CN(C)C
1000 s | COc1ccc(-n2c(SCc3nc(-c4ccc(C)cc4)no3)nnc2-c2ccncc2)cc1
596 s | COc1ccc(C2(C(=O)N3CCCC(CN4CCOCC4)CC3)CC2)cc1 (configuration not stated)
739 s | O=C(NCCc1ccco1)c1ccc2c(c1)NC(=O)C1CCCCN21 (configuration not stated)
1050 s | O=C(NCc1ccc(F)cc1)Nc1ccc(-c2nc(-c3ccccc3)co2)cc1
695 s | COc1ccc(CN2C(=O)c3ccccc3C2C(=O)NCC2CCCO2)c(OC)c1 (configuration not stated)
959 s | COc1ccc(C2(c3nc(CCS(=O)(=O)c4ccccc4)no3)CC2)cc1

RP-LC retention time | SMILES
641 s | CCN(CC)CCN1C(=O)c2ccccc2NC1c1ccc(F)cc1 (configuration not stated)
896 s | CCOc1ccc(-c2cn3ccn(-c4ccc(OCC)cc4)c(=O)c3n2)cc1
796 s | Cc1cc(C)cc(NC(=O)Cn2c(N3CCC(C)CC3)nc(C)cc2=O)c1
668 s | CCc1ccc(NC(=O)N2CCN(c3cc(C)nc(N4CCOCC4)n3)CC2)cc1
836 s | CCC(=O)N(C1CCOCC1)C1CCN(S(=O)(=O)c2cccc(C)c2)CC1
1050 s | O=C(NCCC1=CCCCC1)C(=O)Nc1ccc(Cl)cn1
1020 s | O=C(Nc1ccc(Cl)cc1)C(=O)c1cn(CC(=O)N2CCCC2)c2ccccc12
682 s | CC1CCCN(C(=O)c2nc(-c3ccnc(N4CCCC4)c3)no2)C1 (configuration not stated)
868 s | Cc1ccc(N2CC(c3noc(-c4ccoc4)n3)CC2=O)cc1 (configuration not stated)
709 s | C[C@@H]1C(=O)O[C@H]2C[C@@]34C5C[C@@H](C(C)(C)C)[C@]36[C@H](OC(=O)[C@@H]6O)OC4(C(=O)O5)[C@]21O (some centres not stated)
557 s | CC(=O)N1CCc2cc(N3CC(C(=O)NCc4cccnc4)CC3=O)ccc21 (configuration not stated)
856 s | COc1cc(-c2ccnc3nc(CCc4ccccc4)nn23)cc(OC)c1OC
850 s | O=C(Nc1ccc2c(c1)N(C(=O)c1cccs1)CCC2)c1ccccc1Br
1080 s | COc1ccc(-c2csc(NC(=O)CCCc3nc(-c4ccccc4Cl)no3)n2)cc1
1050 s | Cc1ccc(-n2ccc(=O)c(-c3nc(-c4ccc(Cl)c(F)c4)no3)n2)cc1
761 s | Cc1ccc(-n2nc3c(N4CCCC(C(=O)NCc5ccc(F)cc5)C4)nnc(C)c3c2C)cc1 (configuration not stated)
589 s | COc1ccc(CN2C[C@@H]3C(=O)N(CCCN4CCCC4=O)C(=O)[C@@H]3C2)cc1
744 s | CC(C)Oc1ccc(CNC(=O)CCc2c(-c3ccc(Br)cc3)nc3ccccn23)cc1
1060 s | Cc1ccc(-n2nc(C)c3c(C)cc(OCC(=O)NCc4ccc5c(c4)OCO5)nc32)cc1
1160 s | CCCN1C(=O)COc2ccc(-c3noc(-c4cccc(OC)c4OC)n3)cc21
1190 s | FC(F)(F)c1nnc2c(Sc3ccccc3)nc3ccc(Cl)cc3n12
812 s | COc1cccc(-c2noc(Cn3ccn(-c4ccccc4)c(=O)c3=O)n2)c1

RP-LC retention time | SMILES
910 s | Cc1ccc(NC(=O)C2CCN(S(=O)(=O)c3ccc4c(c3)NC(=O)C(C)O4)CC2)cc1F (configuration not stated)
824 s | COCCN(Cc1cccs1)C(=O)c1nnn(-c2ccccc2)c1-c1ccccn1
568 s | Cc1cccc2nnc(N3CCC(C(=O)N4CCOCC4)CC3)n12
699 s | CCCc1ccc(S(=O)(=O)N2CCN(c3nc4ccncc4n(C)c3=O)CC2)cc1
1240 s | Cc1ccc(CNC(=O)Nc2ccc(-c3nc(-c4cc(C)ccc4C)co3)cc2)cc1
650 s | Cc1cccc(CN2CCn3c(nnc3[C@@H]3C[C@@H](O)CN3Cc3ccccc3)C2)c1
736 s | Cc1noc(C)c1CCC(=O)N1CC(n2cc(COc3ccc(F)cc3)nn2)C1
875 s | COc1cc(NC(=O)Cc2csc3nc(-c4ccc(Cl)cc4)cn23)cc(OC)c1OC
798 s | COc1cccc(-c2noc(Cn3ccn(-c4ccccc4C)c(=O)c3=O)n2)c1OC
1170 s | O=C(NC1CCCCCC1)C1CCCN(c2nccnc2Sc2ccccc2)C1 (configuration not stated)
744 s | COc1ccc2[nH]cc(CCN3CC(C(=O)Nc4nnc(C(C)(C)C)s4)CC3=O)c2c1 (configuration not stated)
650 s | COc1ccc(-c2c(C(=O)Nc3ccc(OC)cc3OC)nc3ccccn23)cc1
736 s | Cc1ccc(C)c(NC(=O)Cc2nnc(-c3ccc4ncccc4c3)o2)c1
762 s | O=C1NCCCCCCN(C(=O)c2ccoc2)[C@H]2C[C@H](C(=O)N3CCc4ccccc4C3)C[C@@H]12
1020 s | CCn1cc(C2=CCN(S(=O)(=O)c3cccc(F)c3)CC2)c2cccnc21
748 s | CN(C)S(=O)(=O)N1CCC(n2c(Cc3ccccc3)nn(C)c2=O)CC1
1130 s | O=C(NCc1ccccc1)N1CC(Oc2ccc(-c3nc(-c4ccccc4)no3)cc2)C1
830 s | COc1ccc(-c2noc(C3CCCN3C(=O)Nc3cccc(C)c3)n2)cc1 (configuration not stated)
744 s | CC(CCc1ccccc1)NC(=O)Cc1nnc(-c2ccncc2)o1 (configuration not stated)
1060 s | COCCC(=O)N(C)Cc1cccnc1Oc1ccccc1
1290 s | COc1cc(OC)cc(-c2nc(C3CC(=O)N(c4ccc(Cl)cc4)C3)no2)c1 (configuration not stated)
